Here are results for 2 molecules from US9040717B2, “Pyrazole-amide compounds and pharmaceutical use thereof” (JAPAN TOBACCO INC., priority 2013, dated 2015).

Test [1] has as its system Zucker Diabetic Fatty rats. Kind of test: Effect of repeated administration on HbA1c in ZDF rats. Format: in vivo, rat. To be noted: 1 mg/kg oral once daily, day 14 of administration, mean ± S.D. (n = 10), *p < 0.05 vs. vehicle group. Here is the method:
Zucker Diabetic Fatty rats (male, 7-week-old, CHARLES RIVER LABORATORIES JAPAN INC.), an animal model for type 2 diabetes, given a purified diet (5.9% fat diet, Oriental Yeast Co., Ltd.) were allocated to the vehicle group and the test compound groups so that no bias occurred in the plasma glucose and insulin levels, HbAlc levels and body weights. Repeated oral doses of the test compound (1 mg/kg/5 mL) were administered to the rats once daily at 3 hr before the dark period. A 0.5% aqueous methylcellulose solution was orally administered in the same manner to the rats of the vehicle group. On day 14 of administration, blood samples were collected from the tail vein and HbAlc level (%) was measured. Statistical analysis was performed by Dunnett's test. Values of p<0.05 were cosidered statistically significant.

For a further test, the target named is human PDHK1 (hPDHK1) (Homo sapiens (Human), UniProt Q15118). Briefly: Inhibitory action of PDHK1 activity in vitro (residual PDH activity after kinase reaction). It counts as biochemical. Here is the method:
(§1) The inhibitory action of PDHK activity was assessed indirectly by measuring the residual PDH activity after kinase reaction in the presence of a test compound.
The recombinant construct was transformed into Escherichia coli (DH5α-TOYOBO). The recombinant clones were identified, and plasmid DNA was isolated and subjected to the DNA sequence analysis. One clone which had the expected nucleic acid sequence was selected for expression work.
The Escherichia coli were grown to an optical density 0.6 ([…]) at 30° C. Protein expression was induced by the addition of 500 μmol/L isopropyl-β-thiogalactopyranoside. The Escherichia coli were cultured at 30° C. for 5 hr and harvested by centrifugation. Resuspension of the Escherichia coli paste was disrupted by a microfluidizer.
The eluted fractions containing FLAG-Tagged protein were pooled, dialyzed against 20 mmol/L HEPES-NaOH, 150 mmol/L sodium chloride, 0.5 mmol/L ethylenediamine tetraacetic acid (EDTA), 1% ethylene glycol, and 0.1% Pluronic F-68 (pH 8.0), and preserved at −80° C.
The mixture was incubated at room temperature for 90 min, and the residual PDH activity was measured.
The absorbance at 340 nm before and after PDH reaction was measured using a microplate reader to detect NADH produced by the PDH reaction.

The target of another test is human PDHK2 (hPDHK2) (Homo sapiens (Human), UniProt Q15119). Kind of test: Inhibitory action of PDHK2 activity in vitro (residual PDH activity after kinase reaction). Format: biochemical. The protocol: as §1
In the case of human PDHK2 (hPDHK2, Genbank Accession No. BC040478.1), modified hPDHK2 cDNA wherein FLAG-Tag sequence was added to the N terminus of hPDHK2 cDNA clone (pReceiver-M01/PDK2-GeneCopoeia) was prepared by PCR and cloned into a vector (pET17b-Novagen). The recombinant construct was transformed into Escherichia coli (DH5α-TOYOBO). The recombinant clones were identified, and plasmid DNA was isolated and subjected to the DNA sequence analysis. One clone which had the expected nucleic acid sequence was selected for expression work.
For expression of hPDHK2 activity, Escherichia coli strain BL21(DE3) cells (Novagen) were transformed with the pET17b vector containing modified hPDHK2 cDNA. The Escherichia coli were grown to an optical density 0.6 ([…]) at 30° C. Protein expression was induced by the addition of 500 μmol/L isopropyl-β-thiogalactopyranoside. The Escherichia coli were cultured at 30° C. for 5 hr and harvested by centrifugation. Resuspension of the Escherichia coli paste was disrupted by a microfluidizer. FLAG-Tagged protein was purified using FLAG affinity gel. […]
0.05 U/mL PDH and 0.8 μg/mL hPDHK2 were mixed in a buffer (50 mmol/L 3-morpholinopropanesulfonic acid (pH 7.0), 20 mmol/L dipotassium hydrogen phosphate, 60 mmol/L potassium chloride, 2 mmol/L magnesium chloride, 0.4 mmol/L EDTA, and 0.2% Pluronic F-68, 2 mmol/L dithiothreitol), and the mixture was incubated at 4° C. overnight to obtain a PDH/hPDHK2 complex. […] The mixture was incubated at room temperature for 90 min, and the residual PDH activity was measured. The absorbance at 340 nm before and after PDH reaction was measured using a microplate reader to detect NADH produced by the PDH reaction. The hPDHK2 inhibition rate (%) of the test compound was calculated from the formula [{(PDH activity of test compound−PDH activity of control)/PDH activity of blank−PDH activity of control)}×100].

Sequence of human PDHK1 (hPDHK1) (Q15118 29-436): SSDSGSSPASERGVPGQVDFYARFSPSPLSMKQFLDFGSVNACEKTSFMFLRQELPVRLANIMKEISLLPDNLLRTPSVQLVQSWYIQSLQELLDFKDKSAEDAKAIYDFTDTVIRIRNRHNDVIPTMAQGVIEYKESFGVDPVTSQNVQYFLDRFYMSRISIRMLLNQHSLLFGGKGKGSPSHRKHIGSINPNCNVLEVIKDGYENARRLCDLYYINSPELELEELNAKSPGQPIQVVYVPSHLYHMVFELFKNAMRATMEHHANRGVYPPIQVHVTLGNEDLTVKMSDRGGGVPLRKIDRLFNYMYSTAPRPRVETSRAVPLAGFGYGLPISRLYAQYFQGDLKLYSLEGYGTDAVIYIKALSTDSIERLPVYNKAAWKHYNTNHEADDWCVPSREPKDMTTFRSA

Turning to `CC(C)(O)CCOc1cc(-c2cnn(C(C)(C)C(N)=O)c2)c2c(c1)[C@@](O)(C(F)(F)F)c1ccccc1-2` [Compound (2), 2-{4-[(9R)-9-hydroxy-2-(3-hydroxy-3-methylbutyloxy)-9-(trifluoromethyl)-9H-fluoren-4-yl]-1H-pyrazol-1-yl}-2-methylpropanamide], the “HbA1c (%)” value in test [1] is listed as 3.2 ± 0.1* %. Besides, the IC50 on human PDHK1 (hPDHK1) turned out to be 4.7 nM; on human PDHK2 (hPDHK2) it was 4.6 nM.
As to `CC(C)(O)CCCOc1cc(-c2cnn(C(C)(C)C(N)=O)c2)c2c(c1)[C@@](O)(C(F)(F)F)c1ccccc1-2` [Compound (3), 2-{4-[(9R)-9-hydroxy-2-(4-hydroxy-4-methylpentyloxy)-9-(trifluoromethyl)-9H-fluoren-4-yl]-1H-pyrazol-1-yl}-2-methylpropanamide], in test [1], the “HbA1c (%)” value is on record as 3.4 ± 0.1* %. Further, the IC50 came out at 3.5 nM on human PDHK1 (hPDHK1) and 4.2 nM against human PDHK2 (hPDHK2).

Broadly, the IC50 is the concentration that gives 50% inhibition. A lower IC50 goes with greater potency in that assay.
